# Measurements published in patent US10561638B2, “Methods for treating dependence” (Biotie Therapies, Inc., priority 2007, dated 2020).
# Tests used:
# [1] = test system: short-term or working memory in rats; test: Delayed-matching-to-position (DMTP) test; format: in vivo, Sprague Dawley rats
# Protocol: In the present DMTP study, rats were trained to remember the position of a lever across a scheduled delay of either 0, 8, 16 or 32 s in order to earn food reward. […] Another group of rats received only vehicle treatment throughout the experiment. […] The dependent measures in the present study included percentage of correct choices, the latency to make choice responses and the number of trials which the animals were able to complete during the 70 min test sessions. Changes in the former measure may indicate changes in memory and/or attentional function whereas changes in the latter two measures may be indicative of other non-cognitive effects of the drugs. Matching to position training began next. This and all subsequent training was conducted with the partitions fitted into the operant boxes. The sessions were initially 50 minutes long. Rats were placed in the operant box and the session began when the houselight was illuminated. Following a 30 s intertrial interval (ITI), one of the two levers (the sample lever) was inserted into the chamber. The lever remained inserted into the chamber until a lever-press response occurred. […] As soon as the magazine flap was pressed the magazine light was extinguished and both levers were inserted. […] The magazine light remained on until the flap was pressed. […] A 30 s ITI was initiated before the commencement of a new trial. The lever inserted as the sample lever was semi-randomly determined such that the right and lefthand levers were presented as the sample lever 8 times in a block of 16 trials. Following 24 sessions, the animals were performing the matching to position task with a high degree of accuracy. On Session 25 a variable delay interval was interposed between the depression of the sample lever and presentation of the levers on the choice trial. After a response to the sample lever, the choice levers were inserted following the first flap press occurring after either a 0 s (immediate), 4, 8 or 16 s delay. The order of the four types of trials (0, 4, 8 or 16 s delay) was semi-randomly determined with the constraint that in a 16 trial block, each delay occurred 4 times; twice on a left trial and twice on a right trial. […] The same trial was reinstated following the end of the ITI. From Session 25 onward the time-out period following incorrect choices was omitted and the session length was increased to 70 minutes. […] Due to poor performance at the 64 s delay, however, this delay was not used in any further sessions. On Session 59, delays of 0, 8, 16 and 32 s were used. These delays were used in all subsequent sessions. Only 51 of the 56 rats completed more than 24 trials (correction plus non-correction) during Session 59. These rats were selected and semi-randomly assigned to the following 7 groups such that the groups were matched on performance (percent correct, response latency and number of trials completed): […] Thus, the drug treatments administered to the seven groups during the 11 consecutive days of the present experiment were: The data collected and analyzed in the present DMTP study include 1) the percentage of correct responses; 2) the latency between performance of a response to the sample lever and the performance of the choice response and 3) the total number of correction and non-correction trials completed. The former two dependent measures were collected for the non-correction trials only. […] Two-way analysis of variance (ANOVA) with drug treatment as the between-subjects factor and delay (0, 8, 16 or 32 s) as the within-subjects factor was used to analyze percentage of correct choices and response latency. These analyses were conducted separately for each block of data. Significant interactions were followed by a one-way ANOVA which was conducted at each delay. A significant main effect from a one-way ANOVA was followed by a two-tailed Dunnett's t-test. One-way ANOVA followed by a post hoc Dunnett's test, when appropriate, was used to analyze the mean number of trials completed. […]
# [2] = test system: brain dopamine/norepinephrine ratio; test: Dopamine/norepinephrine ratios in the brain of rodents; conditions: in vivo
# Protocol: Dopamine/norepinephrine ratios in the brain of rodents treated with nepicastat were determined. Dopamine/norepinephrine ratios increased in the brains of rodents treated with nepicastat or disulfuram.
# [3] = Tolerability in patients with chronic heart failure; format: in vivo, human
# Protocol: The dose at which the frequency of significant adverse events increased was 160 mg.
# [4] = test system: plasma dopamine/norepinephrine; test: Plasma dopamine/norepinephrine in congestive heart failure patients; format: in vivo, human
# Protocol: In studies of congestive heart failure patients, changes in plasma dopamine levels, norepinephrine levels, and dopamine/norepinephrine ratios after treatment with nepicastat in a 10 day study were determined.
# In studies of congestive heart failure patients, plasma dopamine levels, norepinephrine levels, and dopamine/norepinephrine ratios and changes of the levels and the ratios after treatment with nepicastat in a 30 day study were determined.
compound,measurement,setting,value
"Cl.NCc1c[nH]c(=S)n1[C@H]1CCc2c(F)cc(F)cc2C1 [nepicastat, (S)-5-Aminomethyl-1-(5,7-difluoro-1,2,3,4-tetrahydronaphth-2-yl)-2,3-dihydro-2-thioxo-1H-imidazole hydrochloride]",all dependent measures,[1]; Block 2,no significant effects on any of the dependent measures
same,latency to perform the choice response vs vehicle,"[1]; Block 4, 32 s delay, nepicastat 10.0 mg/kg",longer latency to perform the choice response
same,"response latency, number of trials completed",[1]; Block 5,did not significantly affect
same,choice accuracy,"[1]; Block 5, 10 and 30 mg/kg at the 32 s delay",marked dose- and delay-dependent impairment in choice accuracy
same,improvement of DMTP performance,"[1]; administered alone, 10 days",does not appear to induce memory enhancing effects
same,reversal of the effects of scopolamine,[1]; day 11 scopolamine test,did not appear to reverse the effects of scopolamine
same,days of dosing after which memory-disrupting effects are apparent,"[1]; rat, in vivo",8 days
same,dopamine/norepinephrine ratios in the brain,[2],increased
same,patients with symptomatic orthostatic hypotension,[3]; 160 mg,6 of the 8 patients
same,patients who developed a rash,[3]; 160 mg for 8 days or longer,Four of 8 patients
same,tolerability,"[3]; daily doses of 40, 80, 120 mg for 10 days",generally well tolerated
same,dose at which the frequency of significant adverse events increased,"[3]; human, in vivo",160 mg
same,dopamine/norepinephrine levels,[4]; 10 day study,increased dopamine/norepinephrine levels
same,dopamine/norepinephrine levels,[4]; 30 day study,increased dopamine/norepinephrine levels
